Measurements published in ChEMBL document CHEMBL3045111, “Synthesis and herbicidal activities of novel 3-(substituted benzyloxy or phenoxy)-6-methyl-4-(3-trifluoromethylphenyl)pyridazine derivatives” (2012).
Active and inactive are the calls of the source. No cut-off for these calls is given here.

Assays:
[1] = system: Brassica rapa subsp. oleifera; experiment: Post-emergence herbicidal activity against one-leaf stage Brassica rapa subsp. oleifera under greenhouse condition assessed as complete bleaching of leaves at 600 g /ha measured after 24 days by spray method; assay type: functional, organism-based
[2] = system: Brassica rapa subsp. oleifera; experiment: Post-emergence herbicidal activity against one-leaf stage Brassica rapa subsp. oleifera under greenhouse condition at 75 g /ha measured after 24 days by spray method; assay type: functional; conditions: 576 h, read-out: GI
[3] = system: Brassica rapa subsp. oleifera; experiment: Post-emergence herbicidal activity against one-leaf stage Brassica rapa subsp. oleifera under greenhouse condition at 150 g /ha measured after 24 days by spray method; assay type: functional; conditions: 576 h, read-out: GI
[4] = system: Brassica rapa subsp. oleifera; experiment: Post-emergence herbicidal activity against one-leaf stage Brassica rapa subsp. oleifera under greenhouse condition at 300 g /ha measured after 24 days by spray method; assay type: functional; conditions: 576 h, read-out: GI
[5] = system: Brassica rapa subsp. oleifera; experiment: Post-emergence herbicidal activity against one-leaf stage Brassica rapa subsp. oleifera under greenhouse condition at 600 g /ha measured after 24 days by spray method; assay type: functional; conditions: 576 h, read-out: GI
Digitaria [6] = experiment: Post-emergence herbicidal activity against one-leaf stage of Digitaria adscendens under greenhouse condition at 750 g /ha measured after 24 days by spray method; assay type: functional; conditions: in Digitaria adscendens, 576 h, read-out: GI
Echinochloa crus-galli [7] = experiment: Post-emergence herbicidal activity against one-leaf stage of Echinochloa crus-galli (barnyard grass) under greenhouse condition at 750 g /ha measured after 24 days by spray method; assay type: functional; conditions: 576 h, read-out: GI
Amaranthus retroflexus [8] = experiment: Post-emergence herbicidal activity against one-leaf stage of Amaranthus retroflexus under greenhouse condition at 750 g /ha measured after 24 days by spray method; assay type: functional; conditions: 576 h, read-out: GI
[9] = system: Brassica rapa subsp. oleifera; experiment: Post-emergence herbicidal activity against one-leaf stage Brassica rapa subsp. oleifera under greenhouse condition at 750 g /ha measured after 24 days by spray method; assay type: functional; conditions: 576 h, read-out: GI
Digitaria [10] = experiment: Pre-emergence herbicidal activity against Digitaria adscendens under greenhouse condition at 750 g /ha measured after 24 days by spray method; assay type: functional; conditions: in Digitaria adscendens, 576 h, read-out: GI
Echinochloa crus-galli [11] = experiment: Pre-emergence herbicidal activity against Echinochloa crus-galli (barnyard grass) under greenhouse condition at 750 g /ha measured after 24 days by spray method; assay type: functional; conditions: 576 h, read-out: GI
Amaranthus retroflexus [12] = experiment: Pre-emergence herbicidal activity against Amaranthus retroflexus under greenhouse condition at 750 g /ha measured after 24 days by spray method; assay type: functional; conditions: 576 h, read-out: GI
[13] = system: Brassica rapa subsp. oleifera; experiment: Pre-emergence herbicidal activity against Brassica rapa subsp. oleifera under greenhouse condition at 750 g /ha measured after 24 days by spray method; assay type: functional; conditions: 576 h, read-out: GI
Spirodela polyrhiza [14] = experiment: Bleaching herbicidal activity in Spirodela polyrhiza fronds cultured in compound-containing in medium assessed as chlorophyll inhibition at 1 ug/ml after 7 days; assay type: functional; conditions: 168 h
Spirodela polyrhiza [15] = experiment: Bleaching herbicidal activity in Spirodela polyrhiza fronds cultured in compound-containing in medium assessed as chlorophyll inhibition at 10 ug/ml after 7 days; assay type: functional; conditions: 168 h
Amaranthus retroflexus [16] = experiment: Post-emergence herbicidal activity against one-leaf stage Amaranthus retroflexus under greenhouse condition assessed as complete bleaching of leaves at 150 g /ha measured after 24 days by spray method; assay type: functional, organism-based
Amaranthus retroflexus [17] = experiment: Post-emergence herbicidal activity against one-leaf stage Amaranthus retroflexus under greenhouse condition assessed as complete bleaching of leaves at 300 g /ha measured after 24 days by spray method; assay type: functional, organism-based
Amaranthus retroflexus [18] = experiment: Post-emergence herbicidal activity against one-leaf stage Amaranthus retroflexus under greenhouse condition assessed as complete bleaching of leaves at 600 g /ha measured after 24 days by spray method; assay type: functional, organism-based
[19] = system: Brassica rapa subsp. oleifera; experiment: Post-emergence herbicidal activity against one-leaf stage Brassica rapa subsp. oleifera under greenhouse condition assessed as complete bleaching of leaves at 75 g /ha measured after 24 days by spray method; assay type: functional, organism-based
[20] = system: Brassica rapa subsp. oleifera; experiment: Post-emergence herbicidal activity against one-leaf stage Brassica rapa subsp. oleifera under greenhouse condition assessed as complete bleaching of leaves at 150 g /ha measured after 24 days by spray method; assay type: functional, organism-based
[21] = system: Brassica rapa subsp. oleifera; experiment: Post-emergence herbicidal activity against one-leaf stage Brassica rapa subsp. oleifera under greenhouse condition assessed as complete bleaching of leaves at 300 g /ha measured after 24 days by spray method; assay type: functional, organism-based
Amaranthus retroflexus [22] = experiment: Post-emergence herbicidal activity against one-leaf stage Amaranthus retroflexus under greenhouse condition at 75 g /ha measured after 24 days by spray method; assay type: functional; conditions: 576 h, read-out: GI
Amaranthus retroflexus [23] = experiment: Post-emergence herbicidal activity against one-leaf stage Amaranthus retroflexus under greenhouse condition at 150 g /ha measured after 24 days by spray method; assay type: functional; conditions: 576 h, read-out: GI
Amaranthus retroflexus [24] = experiment: Post-emergence herbicidal activity against one-leaf stage Amaranthus retroflexus under greenhouse condition at 300 g /ha measured after 24 days by spray method; assay type: functional; conditions: 576 h, read-out: GI
Amaranthus retroflexus [25] = experiment: Post-emergence herbicidal activity against one-leaf stage Amaranthus retroflexus under greenhouse condition at 600 g /ha measured after 24 days by spray method; assay type: functional; conditions: 576 h, read-out: GI

SMILES | Activity [1] | inhibition of growth at 75 g/ha [2] | inhibition of growth at 150 g/ha [3] | inhibition of growth at 300 g/ha [4] | inhibition of growth at 600 g/ha [5] | inhibition of growth at 750 g/ha (Digitaria [6]) | inhibition of growth at 750 g/ha (Echinochloa crus-galli [7]) | inhibition of growth at 750 g/ha (Amaranthus retroflexus [8]) | inhibition of growth at 750 g/ha [9] | inhibition of growth at 750 g/ha (Digitaria [10]) | inhibition of growth at 750 g/ha (Echinochloa crus-galli [11]) | inhibition of growth at 750 g/ha (Amaranthus retroflexus [12]) | inhibition of growth at 750 g/ha [13] | inhibition at 1 µg/mL (Spirodela polyrhiza [14]) | inhibition at 10 µg/mL (Spirodela polyrhiza [15]) | Activity (Amaranthus retroflexus [17]) | Activity (Amaranthus retroflexus [18]) | Activity [19] | Activity [20] | Activity [21] | also measured
Cc1cccc(Oc2nnc(C)cc2-c2cccc(C(F)(F)F)c2)c1 | Active | 46% | 51% | 63% | 70% | 81% | 40% | 55% | 100% | 43% | 29% | 0% | 3% | 79% | 84% | Active | Active | Active | Active | Active | Activity (Amaranthus retroflexus [16]): Active; inhibition of growth at 75 g/ha (Amaranthus retroflexus [22]): 29%; inhibition of growth at 150 g/ha (Amaranthus retroflexus [23]): 34%; inhibition of growth at 300 g/ha (Amaranthus retroflexus [24]): 38%; inhibition of growth at 600 g/ha (Amaranthus retroflexus [25]): 43%
Cc1cc(-c2cccc(C(F)(F)F)c2)c(OCc2ccccc2Cl)nn1 | Active |  | 57% | 96% | 97% | 26% | 16% | 47% | 90% | 26% | 0% | 40% | 52% | 59% | 93% |  |  |  | Active | Active | 
Cc1cc(-c2cccc(C(F)(F)F)c2)c(OCc2ccccc2C(F)(F)F)nn1 | Active |  | 38% | 49% | 92% | 8% | 14% | 46% | 93% | 2% | 17% | 16% | 28% | 73% | 76% |  |  |  | Active | Active | 
Cc1cc(-c2cccc(C(F)(F)F)c2)c(Oc2cccc(C(F)(F)F)c2)nn1 | Active | 39% | 52% | 58% | 66% | 62% | 38% | 79% | 99% | 7% | 0% | 0% | 0% | 84% | 92% | Active | Active | Active | Active | Active | Activity (Amaranthus retroflexus [16]): Active; inhibition of growth at 75 g/ha (Amaranthus retroflexus [22]): 19%; inhibition of growth at 150 g/ha (Amaranthus retroflexus [23]): 49%; inhibition of growth at 300 g/ha (Amaranthus retroflexus [24]): 70%; inhibition of growth at 600 g/ha (Amaranthus retroflexus [25]): 94%
Cc1ccc(Oc2nnc(C)cc2-c2cccc(C(F)(F)F)c2)cc1 | Active | 56% | 67% | 89% | 97% | 30% | 47% | 84% | 100% | 44% | 0% | 0% | 13% | 82% | 94% | Active | Active | Active | Active | Active | Activity (Amaranthus retroflexus [16]): Active; inhibition of growth at 75 g/ha (Amaranthus retroflexus [22]): 5%; inhibition of growth at 150 g/ha (Amaranthus retroflexus [23]): 47%; inhibition of growth at 300 g/ha (Amaranthus retroflexus [24]): 58%; inhibition of growth at 600 g/ha (Amaranthus retroflexus [25]): 76%
Cc1cc(-c2cccc(C(F)(F)F)c2)c(Oc2ccccc2Cl)nn1 | Active | 31% | 48% | 67% | 91% | 27% | 24% | 84% | 100% | 19% | 0% | 0% | 9% | 42% | 50% | Active | Active | Active | Active | Active | inhibition of growth at 75 g/ha (Amaranthus retroflexus [22]): 5%; inhibition of growth at 150 g/ha (Amaranthus retroflexus [23]): 20%; inhibition of growth at 300 g/ha (Amaranthus retroflexus [24]): 39%; inhibition of growth at 600 g/ha (Amaranthus retroflexus [25]): 65%
Cc1cc(-c2cccc(C(F)(F)F)c2)c(OCc2ccccc2C)nn1 | Active | 44% | 79% | 86% | 95% | 7% | 55% | 29% | 97% | 19% | 2% | 36% | 58% | 62% | 86% |  |  | Active | Active | Active | 
Cc1cc(-c2cccc(C(F)(F)F)c2)c(Oc2ccccc2)nn1 | Active | 38% | 53% | 56% | 75% | 88% | 26% | 75% | 99% | 87% | 0% | 0% | 0% | 68% | 75% | Active | Active | Active | Active | Active | Activity (Amaranthus retroflexus [16]): Active; inhibition of growth at 75 g/ha (Amaranthus retroflexus [22]): 22%; inhibition of growth at 150 g/ha (Amaranthus retroflexus [23]): 36%; inhibition of growth at 300 g/ha (Amaranthus retroflexus [24]): 64%; inhibition of growth at 600 g/ha (Amaranthus retroflexus [25]): 96%
